Measured values: patent US10280171B2, “Heterocyclic inhibitors of PTPN11” (priority 2016, dated 2019)
Structures can show the parent of a compound that is named as a salt.

Columns and labels:
[1] = tested on: Phospho-ERK levels in KYSE-520 cells; assay: ERK Phosphorylation (Phospho-ERK) Target Engagement Assay (HTRF); type: cell-based; details: Homo sapiens, 2 hr compound incubation, phospho-ERK1/2 HTRF kit, read-out: pERK target engagement assay Avg IC50
Procedure: KYSE-520 cells (10 k cells/well) are plated onto 384-well plate in 20 uL of medium (RPMI-1640, without phenol red, containing 10% FBS) and incubated at 37° C., 5% CO2 16 h. DMSO (control) or increasing concentrations of compounds are diluted in medium, added to the 384-well plate (10 uL/well, final DMSO concentration of 0.5-1%), and cells are then incubated with compounds for 2 hr. Phospho-ERK levels are measured using a TR-FRET based phospho-ERK1/2 HTRF kit (CisBio, 64ERKPEH) following manufacturer's recommendations, and fluorescence signal was measured at 665 nm and 620 nm using Synergy Neo plate reader. Dose-response curves were analyzed using IC50 regression curve fitting (GeneData Screener). Curves were normalized to a high controls without inhibitor, and low controls with 1 μM of selumetinib.

[2] = target: PTPN11-E76K mutant enzyme (Homo sapiens (Human), UniProt Q06124, E76K); assay: PTPN11 Enzymatic Assay (DiFMUP phosphatase activity); type: biochemical; details: full length PTPN11-E76K mutant enzyme 250 pM, DiFMUP 50 μM, 30 min preincubation; read-out: PTPN11-E76K Avg IC50
Sequence of PTPN11-E76K mutant enzyme (Q06124 whole entry E76K): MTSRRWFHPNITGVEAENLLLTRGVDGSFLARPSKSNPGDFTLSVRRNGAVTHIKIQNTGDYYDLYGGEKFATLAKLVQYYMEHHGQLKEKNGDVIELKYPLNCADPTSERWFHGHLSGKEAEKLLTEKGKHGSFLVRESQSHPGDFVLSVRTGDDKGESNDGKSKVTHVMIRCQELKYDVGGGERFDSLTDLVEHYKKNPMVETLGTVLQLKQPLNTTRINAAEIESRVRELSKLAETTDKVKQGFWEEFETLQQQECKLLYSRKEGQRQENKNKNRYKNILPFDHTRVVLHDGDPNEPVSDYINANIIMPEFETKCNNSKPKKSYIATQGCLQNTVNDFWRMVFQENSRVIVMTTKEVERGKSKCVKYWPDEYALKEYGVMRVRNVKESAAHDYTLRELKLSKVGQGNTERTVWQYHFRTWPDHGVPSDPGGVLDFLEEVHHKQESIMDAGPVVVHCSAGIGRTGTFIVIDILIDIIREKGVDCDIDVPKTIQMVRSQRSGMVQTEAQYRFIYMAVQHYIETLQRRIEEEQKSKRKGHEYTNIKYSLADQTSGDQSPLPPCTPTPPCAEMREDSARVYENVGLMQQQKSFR
Procedure: Reaction was initiated by addition of DiFMUP (50 μM) at room temperature in 384-well black plate with a final reaction volume of 20 uL in assay buffer. […] Dose-response curves were analyzed using IC50 regression curve fitting (GeneData Screener). Curves were normalized to a high controls without inhibitor, and low controls without enzyme.

[3] = tested on: Phospho-ERK levels in KYSE-520 cells; assay: pERK AlphaScreen Protocol; type: cell-based; details: Homo sapiens, KYSE-520, 2 h, read-out: PERK Avg IC50
In short: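 After overnight growth at 10 k cells/well in RPMI-1640 with 10% FBS, KYSE-520 cells received compound dilutions for 2 h at 1% final DMSO.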

[4] = KYSE-520 cells, 2 hr compound incubation, phospho-ERK1/2 AlphaScreen SureFire

## Clc1cccc(-c2n[nH]c3nc(N4CCC5(CCNC5)CC4)cnc23)c1Cl [Example 2, 8-(3-(2,3-dichloro-phenyl)-1H-pyrazolo[3,4-b]-pyrazin-6-yl)-2,8-diazaspiro-[4.5]decane]
[1]
  IC50: 169 nM
[2]
  IC50: 787 nM

## N[C@@H]1[C@H]2CN(c3cnc4c(-c5cccc(Cl)c5Cl)n[nH]c4n3)C[C@@H]12 [Example 3, (1R,5S,6S)-3-(3-(2,3-dichlorophenyl)-1H-pyrazolo[3,4-b]-pyrazin-6-yl)-3-aza-bicyclo[3.1.0]hexan-6-amine]
[1]
  IC50: 322 nM
[2]
  IC50: 1070 nM

## CC1(CN)CCN(c2cnc3c(-c4cccc(Cl)c4Cl)n[nH]c3n2)CC1 [Example 4, (1-(3-(2,3-dichloro-phenyl)-1H-pyrazolo[3,4-b]-pyrazin-6-yl)-4-methylpiperidin-4-yl)methanamine]
[1]
  IC50: 73 nM

## CNC1(C)CCN(c2cnc3c(-c4cccc(Cl)c4Cl)n[nH]c3n2)CC1 [Example 6, 1-(3-(2,3-Dichlorophenyl)-1H-pyrazolo[3,4-b]-pyrazin-6-yl)-N,4-dimethylpiperidin-4-amine]
[1]
  IC50: 124 nM
[2]
  IC50: 2 nM

## CNc1nccc(-c2n[nH]c3nc(N4CCC(C)(CN)CC4)cnc23)c1Cl [Example 104, 4-(6-(4-(Aminomethyl)-4-methylpiperidin-1-yl)-1H-pyrazolo[3,4-b]pyrazin-3-yl)-3-chloro-N-methylpyridin-2-amine]
[2]
  IC50: 99 nM
[3]; [4]
  IC50: 47 nM

## CC1(N)CCN(c2cnc3c(-c4cccc(N)c4Cl)n[nH]c3n2)CC1 [Example 105, 1-(3-(3-amino-2-chlorophenyl)-1H-pyrazolo[3,4-b]pyrazin-6-yl)-4-methylpiperidin-4-amine]
[2]
  IC50: 191 nM
[3]; [4]
  IC50: 120 nM

## CC1(N)CCN(c2cnc3c(-c4ccnc(N)c4Cl)n[nH]c3n2)CC1 [Example 106, 4-(6-(4-Amino-4-methylpiperidin-1-yl)-1H-pyrazolo[3,4-b]pyrazine-3-yl)-3-chloropyridin-2-amine]
[2]
  IC50: 253 nM
[3]; [4]
  IC50: 174 nM

## CC1(CN)CCN(c2cnc3c(-c4ccnc(N)c4Cl)n[nH]c3n2)CC1 [Example 107, 4-(6-(4-(Aminomethyl)-4-methylpiperidin-1-yl)-1H-pyrazolo[3,4-b]pyrazin-3-yl)-3-chloropyridin-2-amine]
[2]
  IC50: 162 nM
[3]; [4]
  IC50: 246 nM

## N[C@@H]1CCCC12CCN(c1cnc3c(-c4ccnc(O)c4Cl)n[nH]c3n1)CC2 [Example 108, (R)-4-(6-(1-Amino-8-azaspiro[4.5]decan-8-yl)-1H-pyrazolo[3,4-b]pyrazin-3-yl)-3-chloropyridin-2-ol trifluoroacetate]
[2]
  IC50: 726 nM
[3]
  IC50: 6800 nM

## N[C@@H]1COCC12CCN(c1cnc3c(-c4ccnc(O)c4Cl)n[nH]c3n1)CC2 [Example 109, (S)-4-(6-(4-Amino-2-oxa-8-azaspiro[4.5]decan-8-yl)-1H-pyrazolo[3,4-b]pyrazin-3-yl)-3-chloropyridin-2-ol]
[2]
  IC50: 1100 nM
[3]; [4]
  IC50: 10000 nM

## NC1(CO)CCN(c2cnc3c(-c4ccnc(O)c4Cl)n[nH]c3n2)CC1 [Example 110, 4-(6-(4-Amino-4-(hydroxymethyl)piperidin-1-yl)-1H-pyrazolo[3,4-b]pyrazin-3-yl)-3-chloropyridin-2-ol]
[2]
  IC50: 3680 nM
[3]; [4]
  IC50: 7850 nM

## CNc1nccc(-c2n[nH]c3nc(N4CCC5(CCC[C@H]5N)CC4)cnc23)c1Cl [Example 111, (R)-8-(3-(3-Chloro-2-(methylamino)pyridin-4-yl)-1H-pyrazolo[3,4-b]pyrazin-6-yl)-8-azaspiro[4.5]decan-1-amine]
[2]
  IC50: 43 nM
[3]; [4]
  IC50: 20 nM

## NCC1(O)CCN(c2cnc3c(-c4ccnc(N)c4Cl)n[nH]c3n2)CC1 [Example 114, 1-(3-(2-Amino-3-chloropyridin-4-yl)-1H-pyrazolo[3,4-b]pyrazin-6-yl)-4-(aminomethyl)piperidin-4-ol]
[2]
  IC50: 779 nM
[3]; [4]
  IC50: 2490 nM

## Nc1nccc(-c2n[nH]c3nc(N4CCC5(CC4)COC[C@H]5N)cnc23)c1Cl [Example 116, (S)-8-(3-(2-Amino-3-chloropyridin-4-yl)-1H-pyrazolo[3,4-b]pyrazin-6-yl)-2-oxa-8-azaspiro[4.5]decan-4-amine]
[2]
  IC50: 132 nM
[3]; [4]
  IC50: 483 nM

## CC1(N)CCN(c2cnc3c(-c4ccnc(O)c4Cl)n[nH]c3n2)CC1 [Example 117, 4-(6-(4-Amino-4-methylpiperidin-1-yl)-1H-pyrazolo[3,4-b]pyrazin-3-yl)-3-chloropyridin-2-ol]
[2]
  IC50: 1940 nM
[3]; [4]
  IC50: 4780 nM

## CC1(CN)CCN(c2cnc3c(-c4ccnc(O)c4Cl)n[nH]c3n2)CC1 [Example 118, 4-(6-(4-(Aminomethyl)-4-methylpiperidin-1-yl)-1H-pyrazolo[3,4-b]pyrazin-3-yl)-3-chloropyridin-2-ol]
[2]
  IC50: 1130 nM
[3]; [4]
  IC50: 8280 nM

## Nc1nccc(-c2n[nH]c3nc(N4CCC(N)(CO)CC4)cnc23)c1Cl [Example 119, (4-Amino-1-(3-(2-amino-3-chloropyridin-4-yl)-1H-pyrazolo[3,4-b]pyrazin-6-yl)-piperidin-4-yl)methanol]
[2]
  IC50: 422 nM
[3]; [4]
  IC50: 1730 nM

## NCC1(O)CCN(c2cnc3c(-c4ccnc(O)c4Cl)n[nH]c3n2)CC1 [Example 120, 4-(6-(4-(Aminomethyl)-4-hydroxypiperidin-1-yl)-1H-pyrazolo[3,4-b]pyrazin-3-yl)-3-chloropyridin-2-ol]
[2]
  IC50: 5370 nM
[3]; [4]
  IC50: 9700 nM

## NC1(CO)CCN(c2cnc3c(-c4c(F)cccc4Cl)n[nH]c3n2)CC1 [Example 121, (4-Amino-1-(3-(2-chloro-6-fluorophenyl)-1H-pyrazolo[3,4-b]pyrazin-6-yl)-piperidin-4-yl)methanol]
[2]
  IC50: 1080 nM
[3]; [4]
  IC50: 1650 nM

## Nc1cc(-c2n[nH]c3nc(N4CCC5(CCC[C@H]5N)CC4)cnc23)c(Cl)cn1 [Example 125, (R)-8-(3-(2-amino-5-chloropyridin-4-yl)-1H-pyrazolo[3,4-b]pyrazin-6-yl)-8-azaspiro[4.5]decan-1-amine]
[2]
  IC50: 509 nM
[3]; [4]
  IC50: 429 nM

## Nc1nccc(-c2n[nH]c3nc(N4CCC5(CCC[C@H]5N)CC4)cnc23)c1Cl [Example 130, (1R)-8-[3-(2-amino-3-chloropyridin-4-yl)-1H-pyrazolo[3,4-b]pyrazin-6-yl]-8-azaspiro[4.5]decan-1-amine]
[2]
  IC50: 83 nM
[3]; [4]
  IC50: 65 nM

## Nc1cccc(-c2n[nH]c3nc(N4CCC5(CCC[C@H]5N)CC4)cnc23)c1Cl [Example 131, (1R)-8-[3-(3-amino-2-chlorophenyl)-1H-pyrazolo[3,4-b]-pyrazin-6-yl]-8-aza-spiro[4.5]decan-1-amine]
[2]
  IC50: 84 nM
[3]; [4]
  IC50: 35 nM

## CC1(CN)CCN(c2cnc3c(-c4cccc(N)c4Cl)n[nH]c3n2)CC1 [Example 132, 3-{6-[4-(amino-methyl)-4-methyl-piperidin-1-yl]-1H-pyrazolo[3,4-b]-pyrazin-3-yl}-2-chloroaniline]
[2]
  IC50: 119 nM
[3]; [4]
  IC50: 63 nM

## CC1(CN)CCN(c2cnc3c(-c4cc(N)ncc4Cl)n[nH]c3n2)CC1 [Example 133, 4-{6-[4-(amino-methyl)-4-methyl-piperidin-1-yl]-1H-pyrazolo[3,4-b]-pyrazin-3-yl}-5-chloropyridin-2-amine]
[2]
  IC50: 840 nM
[3]; [4]
  IC50: 533 nM

## NCC1(O)CCN(c2cnc3c(-c4cc(N)ncc4Cl)n[nH]c3n2)CC1 [Example 134, 1-[3-(2-amino-5-chloropyridin-4-yl)-1H-pyrazolo[3,4-b]-pyrazin-6-yl]-4-(aminomethyl)-piperidin-4-ol]
[2]
  IC50: 1530 nM
[3]; [4]
  IC50: 2010 nM

## CCC1(N)CCN(c2cnc3c(-c4ccnc(N)c4Cl)n[nH]c3n2)CC1 [Example 135, 4-[6-(4-amino-4-ethylpiperidin-1-yl)-1H-pyrazolo[3,4-b]-pyrazin-3-yl]-3-chloropyridin-2-amine]
[2]
  IC50: 529 nM
[3]; [4]
  IC50: 122 nM

## Nc1cc(-c2n[nH]c3nc(N4CCC5(CC4)COC[C@H]5N)cnc23)c(Cl)cn1 [Example 137, (4S)-8-[3-(2-amino-5-chloropyridin-4-yl)-1H-pyrazolo[3,4-b]pyrazin-6-yl]-2-oxa-8-azaspiro[4.5]-decan-4-amine]
[2]
  IC50: 504 nM
[3]; [4]
  IC50: 1030 nM

## CC1(N)CCN(c2cnc3c(-c4cc(N)ncc4Cl)n[nH]c3n2)CC1 [Example 138, 4-[6-(4-amino-4-methylpiperidin-1-yl)-1H-pyrazolo[3,4-b]pyrazin-3-yl]-5-chloropyridin-2-amine]
[2]
  IC50: 587 nM
[3]; [4]
  IC50: 406 nM
